Source: US9796985B2, “Compositions and method for modulating the sensitivity of plants to cytokinin” (Trustees of Dartmouth College, priority 2013, dated 2017)
Where a SMILES comes first, the peptide text is derived from it. The star is where a group is joined. Cbz = O=C(OCc1ccccc1)*

Columns and labels:
ARR7 and ARR15 = conditions: wild-type plants, one hour treatment with 100 nM t-zeatin, qRT-PCR
Method: (§1) Cytokinin Growth and Molecular Response Analyses. Hypocotyl and root growth analyses were performed according to known methods (Argyros, et al. (2008) Plant Cell 20(8):2102-2116) and hypocotyl and root lengths were measured using ImageJ software (version 1.32; National Institutes of Health). Root meristem size was determined via established methods (Perilli & Sabatini (2010) Methods Mol. Biol. 655:177-187). The apical meristem was visualized by bright field microscopy, with tissue sectioning, fixation, and staining performed according to known methods (Chiang, et al. (2012) Plant Physiol. 160(1):332-348). Total RNA isolation, cDNA production, and quantitative RT-PCR (qRT-PCR) were performed via established methods (Argyros, et al. (2008) supra). Transcript abundances were calculated using the comparative CT method, with 13-TUB3 (At5g62700) as the normalized control.
(§2) Plant Growth Conditions and Cytokinin Treatment. Seeds were surface-sterilized and cold-treated for 3 days in the dark at 4° C. to ensure uniform germination before being moved into the light. For molecular and physiological assays, seedlings were grown on medium containing 1× Murashige and Skoog (MS) salts with vitamins (Research Products International Corp.), 1% sucrose, and 0.8% phytoagar (Research Products International Corp.) at 22° C. under continuous white light (50 μE·m^−2·s^−1) unless specified otherwise. […]

[1] = test system: dark-grown, wild-type seedlings; conditions: increasing concentrations of t-zeatin
Method: as §1, §2

proteasome = assay: Role of the proteasome in ARR stability, immunoblot of protoplasts; format: cell-based, Arabidopsis; conditions: 10 μM MG132, 3 hours

| SMILES | induction of ARR7 and ARR15 expression (ARR7 and ARR15) | hypocotyl elongation [1] | protein level of ARR1 (proteasome; protoplasts from ARR1-HA overexpression line) | protein level of ARR12 (proteasome; protoplasts from ARR12-Myc overexpression line) |
| --- | --- | --- | --- | --- |
| C/C(=C\CNc1ncnc2[nH]cnc12)CO [t-zeatin, 6-(4-hydroxy-3methylbut-trans-2-enylamino) purine] | two- to four-fold | inhibition of hypocotyl elongation | – | – |
| CC(C)C[C@@H](C=O)NC(=O)[C@H](CC(C)C)NC(=O)[C@H](CC(C)C)NC(=O)OCc1ccccc1 [MG132] (Cbz-Leu-Leu-Leu-aldehyde) | – | – | increased | increased |
